The test system of series [1] is Trypanosoma brucei brucei. Nature of the series: Antitrypanosomal activity against bloodstream form of Trypanosoma brucei brucei Lister 427 after 72 hrs by resazurin based fluorescence assay. The class given is functional. To be noted: Lister 427, 72 h.
The nature of series [2]: Cytotoxicity against human MRC5 SV2 cells after 48 hrs by resazurin based fluorescence assay. In kind it is cell-based. As to conditions: MRC-5 SV2, 48 h. For orientation: Alamar Blue is a resazurin reagent that responds to reducing activity.
Series [3] in a line: Kinetic aqueous solubility of the compound by CLND method. As to conditions: read-out: Kinetic_solubility. In kind it is physicochemical.
Series [4] has as its system Trypanosoma cruzi. Nature of the series: Antitrypanosomal activity against Trypanosoma cruzi Tulahuen C4 amastigotes infected in rat L6 cells after 96 hrs by beta-galactosidase reporter gene assay. The class given is functional, cell-based. To be noted: Tulahuen C4, L6, 96 h. (Reporter assays use an easily measured gene product as a stand-in for the process of interest.)

The subject of series [5] is L6. In words: Cytotoxicity against rat L6 cells assessed as reduction in cell viability after 72 hrs by resazurin based fluorescence assay. To be noted: L6, 72 h.
Series [6] relates to Leishmania donovani. Nature of the series: Antileishmanial activity against intracellular […] stage of Leishmania donovani MHOM/ET/67/HU3 infected in human THP1 cells measured after 72 hrs by luciferase reporter gene assay. In kind it is functional, cell-based. To be noted: MHOM/ET/67/HU3, THP-1, 72 h.
The subject of series [7] is THP-1. In words: Cytotoxicity against human THP1 cells assessed as reduction in cell viability after 72 hrs by MTT assay. The class given is cell-based. As to conditions: THP-1, 72 h. In general terms: Tetrazolium dyes change colour on reduction, which living cells bring about.
Series [8] can be described thus: Lipophilicity, log D of the compound at pH 7.4. The class given is physicochemical. As to conditions: buffer.
Series [9] concerns Liver. In words: Intrinsic clearance in human liver microsomes. The class given is ADME, microsome.
Series [10] is described as follows: Intrinsic clearance in rat hepatocytes assessed per million cells. In kind it is ADME, cell-based, Hepatocyte.
Series [11] deals with Trypanosoma brucei brucei. In words: Antitrypanosomal activity against bloodstream form of Trypanosoma brucei brucei Lister 427 after 70 hrs by resazurin based fluorescence assay. The class given is functional. To be noted: Lister 427, 70 h.

The values below come from ChEMBL document CHEMBL4052780, “Novel 1,2-dihydroquinazolin-2-ones: Design, synthesis, and biological evaluation against Trypanosoma brucei” (Bioorg Med Chem Lett, 2017).

pEC50: −log10 of the molar value. Converted amounts (≈) assume the structure as drawn.

`O=c1nc(-c2ccccc2)c2cc(N3CCOCC3)ccc2[nH]1`: the negative logarithm of the EC50 (pEC50) in [1] was 4.85; in series [2], less than 4.30; in series [4], less than 4.70; in series [5], less than 4.30; in [6] it was less than 5.30; in series [7], less than 4.30. Also, the solubility kinetic in series [3] was found to be 324 µM (≈ 99.6 µg/mL).
With `O=c1nc(C2CCCCC2)c2cc(-c3cc[nH]n3)ccc2[nH]1`, the pEC50 in series [1] is 5.24; in [2], less than 4.30; in series [4] it was 4.70; in [5] it was less than 4.30; in series [6], less than 5.30; in series [7] it was less than 4.30. The solubility kinetic in [3] amounted to 5 µM (≈ 1.47 µg/mL).
Consider `O=c1nc(-c2ccccc2)c2cc(-c3cc[nH]n3)ccc2[nH]1`, for which the pEC50 in [1] was 5.98; in series [2], less than 4.30; in series [4] it was 4.88; in series [5], less than 4.30; in series [6], less than 5.30; in [7] it was less than 4.30. Further, the solubility kinetic in series [3] amounted to 8 µM (≈ 2.31 µg/mL). The logD in [8] worked out at 2.2. Moreover, the results for the CLH in series [9] and in series [10] were 19 µL/min/mg and less than 1 µL/min, respectively.
In the case of `Cc1ccccc1-c1nc(=O)[nH]c2ccc(-c3cc[nH]n3)cc12`, the pEC50 was 5.50 in series [1]; less than 4.30 in series [2]; 5.28 in series [4]; less than 4.30 in series [5]; less than 5.30 in series [6]; less than 4.30 in [7]. Moreover, the solubility kinetic in series [3] amounted to 13 µM (≈ 3.93 µg/mL).
Regarding `O=c1nc(-c2ccccc2)c2cc(-c3ccncc3)ccc2[nH]1`, the pEC50 is 5.72 in series [1]; less than 4.30 in series [2]; 4.96 in [4]; less than 4.30 in series [5]; less than 5.30 in series [6]; 6.08 in series [11].
As to `O=c1nc(C2CCC2)c2cc(-c3cc[nH]n3)ccc2[nH]1`, the pEC50 in series [1] was 5.23; in series [2], less than 4.30; in series [4], 4.77; in series [5], less than 4.30; in series [6] it was less than 5.30; in series [7] it was less than 4.30. In addition, in series [3], the solubility kinetic worked out at 74 µM (≈ 19.7 µg/mL). Moreover, in [8], the logD amounted to 2.3.

A word on the pEC50: it is the negative decadic logarithm of the EC50, by convention in mol/L. What is called logD is the decadic logarithm of the distribution of all forms, ionised or not, between an organic phase and buffer at a given pH.
